Here are results for one compound from patent publication US20040242459A1 (priority 2001, published 2004).

Where “and” joins values, the source holds several entries; their conditions need not be identical. Identical values can stand only once.

One assay deals with T1, hPPARα/GAL4 (Homo sapiens, UniProt Q07869).
T1 construct: expressed in transfected cells; host or cells: COS-1 cells
Kind of assay: Gal-4 hPPAR transactivation assay in COS-1 cells (alpha). The format is cell-based. Conditions: two values separated by a slash in some cells. On the procedure:
The chimeric receptor expression constructs, pcDNA3-hPPARγ/GAL4, pcDNA3-hPPARδ/GAL4, pcDNA3-hPPARα/GAL4 were prepared by inserting the yeast GAL4 transcription factor DBD adjacent to the ligand binding domains (LBDs) of hPPARγ, hPPARδ, hPPARα, respectively. The reporter construct, pUAS(5×)-tk-luc was generated by inserting 5 copies of the GAL4 response element upstream of the herpes virus minimal thymidine kinase promoter and the luciferase reporter gene. pCMV-lacZ contains the galactosidase Z gene under the regulation of the cytomegalovirus promoter. COS-1 cells were seeded at 12×10^3 cells/well in 96 well cell culture plates in high glucose Dulbecco's modified Eagle medium (DMEM) containing 10% charcoal stripped fetal calf serum (Gemini Bio-Products, Calabasas, Calif.), nonessential amino acids, 100 units/ml Penicillin G and […] Streptomycin sulfate at 37° C. in a humidified atmosphere of 10% CO2. After 24 h, transfections were performed with Lipofectamine (GIBCO BRL, Gaithersburg, Md.) according to the instructions of the manufacturer. […] Luciferase activity in cell extracts was determined using Luciferase Assay Buffer (Promega, Madison, Wis.) in an ML3000 luminometer (Dynatech Laboratories, Chantilly, Va.). β-galactosidase activity was determined using β-D-galactopyranoside (Calbiochem, San Diego, Calif.).

The target of assay [1] is T2, recombinant human PPARα (GST-PPARα) (Homo sapiens, UniProt Q07869).
T2 construct: The full length human cDNAs for PPARδ and PPARα were subcloned into the pGEX-KT expression vector; made in house; host or cells: E. coli
T2 sequence (Q07869 1-468): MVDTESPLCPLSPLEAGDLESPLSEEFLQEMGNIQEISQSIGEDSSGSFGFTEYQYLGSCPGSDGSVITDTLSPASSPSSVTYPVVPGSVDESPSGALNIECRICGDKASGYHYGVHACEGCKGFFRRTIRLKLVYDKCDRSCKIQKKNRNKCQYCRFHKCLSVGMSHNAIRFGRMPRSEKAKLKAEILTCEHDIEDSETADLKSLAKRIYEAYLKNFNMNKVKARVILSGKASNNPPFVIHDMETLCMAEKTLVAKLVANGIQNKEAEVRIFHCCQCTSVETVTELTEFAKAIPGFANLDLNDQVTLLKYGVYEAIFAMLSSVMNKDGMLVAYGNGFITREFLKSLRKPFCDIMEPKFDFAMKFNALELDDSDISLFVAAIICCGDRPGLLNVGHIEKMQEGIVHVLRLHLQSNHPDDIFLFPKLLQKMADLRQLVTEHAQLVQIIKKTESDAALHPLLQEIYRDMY
Kind of assay: Scintillation Proximity Assay, displacement of [3H2]Compound A from PPARα. The class given is binding. As to conditions: human PPARα binding; read-out: IC50 (μM: SPA or BND) Alpha. An excerpt: As an approach to identifying human PPAR agonists, a Scintillation Proximity Assay was used to characterize PPAR-γ, PPAR-δ, and PPAR-α ligands.
Human PPARγ2, human PPARδ and human PPARα were expressed as GST-fusion proteins in E. coli. The full length human cDNA for PPARγ 2 was subcloned into the pGEX-2 T expression vector (Amersham Pharmacia Biotech, Inc.). The full length human cDNAs for PPARδ and PPARα were subcloned into the pGEX-KT expression vector (Amersham Pharmacia Biotech, Inc.). E. coli containing the respective plasmids were propagated, induced, and harvested by centrifugation. The resuspended pellet was broken in a French press and debris removed by centrifugation. Recombinant human PPAR receptors were purified by affinity chromatography on glutathione sepharose. After application to the column, and one wash, receptor was eluted with glutathione. Glycerol (10%) was added to stabilize the receptor and aliquots were stored at −80° C.
After incubation for ˜16 h at 15° C. with shaking, the assay plates were counted in a Packard Topcount with quench correction.

T1 sequence (P04386 1-147 partner limits assumed, one chain of several): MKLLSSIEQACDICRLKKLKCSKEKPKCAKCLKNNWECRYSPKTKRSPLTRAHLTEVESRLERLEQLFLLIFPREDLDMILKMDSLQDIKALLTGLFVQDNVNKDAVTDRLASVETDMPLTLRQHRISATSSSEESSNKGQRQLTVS

As a reminder, the EC50 is the midpoint of the concentration-response curve. One may read the IC50 as the concentration that gives 50% inhibition. As to `CCCc1cc(Oc2ccccc2)ccc1OCCc1cc2cc(CC(=O)O)ccc2[nH]1` [Compound 2, {2-[2-(4-phenoxy-2-propylphenoxy)ethyl]-1H-indol-5-yl}acetic acid], the concentration for a half-maximal effect (EC50) on hPPARα/GAL4 was 1.05 µM and 1.2 µM. The half-inhibitory concentration (IC50) in assay [1] turned out to be 1.48 µM.
